# Results reported in patent US20240226115A1, “AXL INHIBITOR COMPOUNDS” (ARCUS BIOSCIENCES, INC., priority 2021, published 2024).
# Biological target: T1, Axl (Homo sapiens, UniProt P30530)
# T1 sequence (P30530 26-894): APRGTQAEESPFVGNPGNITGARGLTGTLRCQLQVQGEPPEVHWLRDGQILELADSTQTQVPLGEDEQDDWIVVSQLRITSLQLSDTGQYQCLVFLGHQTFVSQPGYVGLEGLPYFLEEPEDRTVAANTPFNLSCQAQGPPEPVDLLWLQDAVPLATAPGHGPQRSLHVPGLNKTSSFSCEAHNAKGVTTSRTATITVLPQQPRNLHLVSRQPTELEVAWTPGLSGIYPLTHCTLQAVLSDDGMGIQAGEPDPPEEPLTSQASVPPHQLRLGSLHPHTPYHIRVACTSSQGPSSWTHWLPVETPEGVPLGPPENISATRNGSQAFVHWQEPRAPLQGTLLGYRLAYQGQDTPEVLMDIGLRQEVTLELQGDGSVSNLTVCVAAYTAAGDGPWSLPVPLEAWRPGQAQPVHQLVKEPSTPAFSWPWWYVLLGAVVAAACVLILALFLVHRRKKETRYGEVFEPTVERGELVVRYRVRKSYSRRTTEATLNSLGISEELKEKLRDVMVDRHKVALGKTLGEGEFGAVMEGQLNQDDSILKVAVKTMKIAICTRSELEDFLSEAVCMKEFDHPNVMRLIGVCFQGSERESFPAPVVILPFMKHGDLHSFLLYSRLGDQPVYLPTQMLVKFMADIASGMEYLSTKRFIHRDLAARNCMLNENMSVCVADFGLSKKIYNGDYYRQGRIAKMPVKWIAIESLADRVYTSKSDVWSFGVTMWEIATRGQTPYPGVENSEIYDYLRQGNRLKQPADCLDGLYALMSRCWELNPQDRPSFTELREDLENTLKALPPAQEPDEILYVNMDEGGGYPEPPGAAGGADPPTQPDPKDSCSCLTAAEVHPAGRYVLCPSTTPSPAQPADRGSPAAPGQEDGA
# Test: Axl NanoBRET intracellular kinase assay (Cell Binding)
# Parameters: host or cells: HEK-293
# Details: HEK-293 cells transfected with Axl-NanoLuc fusion vector; displacement of K-5 NanoBRET tracer
# Procedure: Axl NanoBRET™ intracellular kinase assay (Promega, N2540) was performed according to manufacturer's recommendation. In brief, HEK-293 cells are transiently transfected with Axl-NanoLuc fusion vector (Promega, NV1071), utilizing Fugene HD transfection reagent (Promega, E2311) a day before experiment following manufacturer's recommendation.
# The day of the assay, the cells were collected and resuspended in Opti-MEM media (ThermoFisher, 31985070) at 2e5 cells/mL concentration. Testing compounds were serial diluted and dispensed into a white 384 well polystyrene plate at 200 nL in 100% DMSO. 40 μL of resuspended cells is then added per well for a final condition of 8K cells/well with 0.5% DMSO. After one-hour compound pre-incubation at 37° C. and 5% CO2, cells were further incubated with 0.35 μM K-5 NanoBRET tracer for two-hours at 37° C. and 5% CO2. […] of 3× substrate plus Inhibitor solution was prepared according to kits manual and added to the cells followed by a 30 second pulse centrifugation spin. The plate was then immediately read utilizing an Envision (Perkin Elmer) plate reader. The BRET signal is measured by taking the ratio of the emissions reading at 610 nm and 450 nm. Compound binding is based on the decrease BRET signal caused by the displacement of the K-5 tracer. […] IC50 value of compounds was determined by 4-parameter non-linear regression fitting of percent activity in GraphPad Prism software.
row,SMILES,IC50
1,"CC1(O)CCOc2cc(-c3n[nH]c4ncc(-c5ccc6c(c5)CCN(C5CCCC5)CC6)cc34)ccc21 (stereo not drawn) [Example 26, 7-[5-(3-Cyclopentyl-2,3,4,5-tetrahydro-1H-3-benzazepin-7-yl)-1H-pyrazolo[3,4-b]pyridin-3-yl]-4-methyl-3,4-dihydro-2H-1-benzopyran-4-ol]",0.1 to 1 µM
2,"O=C1NCCOc2cc(-c3n[nH]c4ncc(-c5ccc6c(c5)CCC(N5CC[C@@H](O)C5)CC6)cc34)ccc21 (stereo partly drawn) [Example 51, 8-(5-(7-((R)-3-Hydroxypyrrolidin-1-yl)-6,7,8,9-tetrahydro-5H-benzo[7]annulen-2-yl)-1H-pyrazolo[3,4-b]pyridin-3-yl)-3,4-dihydrobenzo[f][1,4]oxazepin-5(2H)-one]",0.1 to 1 µM
3,"CC1(O)CCCCc2cc(-c3n[nH]c4ncc(-c5ccc6c(c5)CCN(C5CCCC5)CC6)cc34)ccc21 (stereo not drawn) [Example 27, 2-[5-(3-Cyclopentyl-2,3,4,5-tetrahydro-1H-3-benzazepin-7-yl)-1H-pyrazolo[3,4-b]pyridin-3-yl]-5-methyl-6,7,8,9-tetrahydro-5H-benzo[7]annulen-5-ol]",0.1 to 1 µM
4,"O=C1NCCOc2cc(-c3n[nH]c4ncc(-c5ccc6c(c5)CCC(N5CCCC5)CC6)cc34)ccc21 (racemic) [Example 1, 8-{5-[7-(Pyrrolidin-1-yl)-6,7,8,9-tetrahydro-5H-benzo[7]annulen-2-yl]-1H-pyrazolo[3,4-b]pyridin-3-yl}-2,3,4,5-tetrahydro-1,4-benzoxazepin-5-one]",< 0.1 µM
5,"C[C@@H]1CCCN1C1CCc2cc(F)c(-c3cnc4[nH]nc(-c5ccc6c(c5)OCCNC6=O)c4c3)cc2CC1 (stereo partly drawn) [Example 58, 8-(5-{3-Fluoro-7-[(2R)-2-methylpyrrolidin-1-yl]-6,7,8,9-tetrahydro-5H-benzo[7]annulen-2-yl}-1H-pyrazolo[3,4-b]pyridin-3-yl)-2,3,4,5-tetrahydro-1,4-benzoxazepin-5-one]",< 0.1 µM
6,"O=C1NCCOc2cc(-c3n[nH]c4ncc(-c5ccc6c(c5)CCC(N[C@@H]5CCOC5)CC6)cc34)ccc21 (stereo partly drawn) [Example 46, 8-[5-(7-{[(3R)—Oxolan-3-yl]amino}-6,7,8,9-tetrahydro-5H-benzo[7]annulen-2-yl)-1H-pyrazolo[3,4-b]pyridin-3-yl]-2,3,4,5-tetrahydro-1,4-benzoxazepin-5-one]",< 0.1 µM
7,"O=C1NCCOc2cc(-c3n[nH]c4ncc(-c5ccc6c(c5)CCN(C5CCCC5)CC6)cc34)ccc21 [Example 7, 8-[5-(3-Cyclopentyl-2,3,4,5-tetrahydro-1H-3-benzazepin-7-yl)-1H-pyrazolo[3,4-b]pyridin-3-yl]-2,3,4,5-tetrahydro-1,4-benzoxazepin-5-one]",< 0.1 µM
8,"O=C1NCCOc2cc(-c3n[nH]c4ncc(-c5ccc6c(c5)CC[C@H](N5CCCC5)CC6)cc34)ccc21 (single isomer, unassigned) [Example 56]",< 0.1 µM
9,"CC(C)C(=O)N1CCc2ccc(-c3cnc4[nH]nc(-c5ccc6c(c5)OCCNC6=O)c4c3)cc2CC1 [Example 16, 8-{5-[3-(2-Methylpropanoyl)-2,3,4,5-tetrahydro-1H-3-benzazepin-7-yl]-1H-pyrazolo[3,4-b]pyridin-3-yl}-2,3,4,5-tetrahydro-1,4-benzoxazepin-5-one]",0.1 to 1 µM
10,"O=C1NCCOc2cc(-c3n[nH]c4ncc(-c5ccc6c(n5)CCC(N5CCCC5)CC6)cc34)ccc21 (stereo not drawn) [Example 63, 8-{5-[7-(Pyrrolidin-1-yl)-5H,6H,7H,8H,9H-cyclohepta[b]pyridin-2-yl]-1H-pyrazolo[3,4-b]pyridin-3-yl}-2,3,4,5-tetrahydro-1,4-benzoxazepin-5-one]",0.1 to 1 µM
11,"C[C@H]1CCCN1C1Cc2ccc(-c3cnc4[nH]nc(-c5ccc6c(c5)OCC(C)(C)NC6=O)c4c3)cc2C1 (stereo partly drawn) [Example 39, 3,3-Dimethyl-8-(5-{2-[(2S)-2-methylpyrrolidin-1-yl]-2,3-dihydro-1H-inden-5-yl}-1H-pyrazolo[3,4-b]pyridin-3-yl)-2,3,4,5-tetrahydro-1,4-benzoxazepin-5-one]",< 0.1 µM
12,"O=C1NCCOc2cc(-c3n[nH]c4ncc(-c5ccc6c(c5)CCC(NC5CCCC5)CC6)cc34)ccc21 (stereo not drawn) [Example 42, 8-{5-[7-(Cyclopentylamino)-6,7,8,9-tetrahydro-5H-benzo[7]annulen-2-yl]-1H-pyrazolo[3,4-b]pyridin-3-yl}-2,3,4,5-tetrahydro-1,4-benzoxazepin-5-one]",< 0.1 µM
13,"O=C1NCCOc2cc(-c3n[nH]c4ncc(-c5ccc6c(c5)CCN(C(=O)C5CC5)CC6)cc34)ccc21 [Example 17, 8-[5-(3-Cyclopropanecarbonyl-2,3,4,5-tetrahydro-1H-3-benzazepin-7-yl)-1H-pyrazolo[3,4-b]pyridin-3-yl]-2,3,4,5-tetrahydro-1,4-benzoxazepin-5-one]",0.1 to 1 µM

# Second part, the compound after the results:
row,IC50,SMILES
1,< 0.1 µM,"O=C1NCCOc2cc(-c3n[nH]c4ncc(-c5ccc6c(c5)CCC(N5CCC5)CC6)cc34)ccc21 (stereo not drawn) [Example 52, 8-(5-(7-(Azetidin-1-yl)-6,7,8,9-tetrahydro-5H-benzo[7]annulen-2-yl)-1H-pyrazolo[3,4-b]pyridin-3-yl)-3,4-dihydrobenzo[f][1,4]oxazepin-5(2H)-one]"
2,< 0.1 µM,"C[C@@H]1CCCN1C1CCc2ccc(-c3cnc4[nH]nc(-c5ccc6c(c5)C(=O)NC6(C)C)c4c3)cc2CC1 (stereo partly drawn) [Example 38, 3,3-Dimethyl-6-(5-{7-[(2R)-2-methylpyrrolidin-1-yl]-6,7,8,9-tetrahydro-5H-benzo[7]annulen-2-yl}-1H-pyrazolo[3,4-b]pyridin-3-yl)-2,3-dihydro-1H-isoindol-1-one]"
3,< 0.1 µM,"C[C@@H]1CCCN1C1CCc2ccc(-c3cnc4[nH]nc(-c5ccc6c(c5F)OCCNC6=O)c4c3)cc2CC1 (stereo partly drawn) [Example 60, 9-Fluoro-8-(5-{7-[(2R)-2-methylpyrrolidin-1-yl]-6,7,8,9-tetrahydro-5H-benzo[7]annulen-2-yl}-1H-pyrazolo[3,4-b]pyridin-3-yl)-2,3,4,5-tetrahydro-1,4-benzoxazepin-5-one]"
4,< 0.1 µM,"C[C@@H]1CCCN1C1CCc2ccc(-c3cnc4[nH]nc(-c5ccc6c(c5)OCCNS6(=O)=O)c4c3)cc2CC1 (stereo partly drawn) [Example 66, 7-(5-{7-[(2R)-2-Methylpyrrolidin-1-yl]-6,7,8,9-tetrahydro-5H-benzo[7]annulen-2-yl}-1H-pyrazolo[3,4-b]pyridin-3-yl)-3,4-dihydro-2H-5,12,2-benzoxathiazepine-1,1-dione]"
5,< 0.1 µM,"C[C@@H]1CCCN1C1CCc2ccc(-c3cnc4[nH]nc(-c5ccc6c(c5)OCC5(CC5)NC6=O)c4c3)cc2CC1 (stereo partly drawn) [Example 36, 8-(5-{7-[(2R)-2-Methylpyrrolidin-1-yl]-6,7,8,9-tetrahydro-5H-benzo[7]annulen-2-yl}-1H-pyrazolo[3,4-b]pyridin-3-yl)-4,5-dihydro-2H-spiro[1,4-benzoxazepine-3,1′-cyclopropan]-5-one]"
6,< 0.1 µM,"CC1(O)CCOc2cc(-c3n[nH]c4ncc(-c5ccc6c(c5)CC[C@@H](N5CCCC5)CC6)cc34)ccc21 (stereo partly drawn) [Example 31, 4-Methyl-7-{5-[(7S)-7-(pyrrolidin-1-yl)-6,7,8,9-tetrahydro-5H-benzo[7]annulen-2-yl]-1H-pyrazolo[3,4-b]pyridin-3-yl}-3,4-dihydro-2H-1-benzopyran-4-ol]"
7,< 0.1 µM,"CC1(N2CCCC2)CCc2ccc(-c3cnc4[nH]nc(-c5ccc6c(c5)OCCNC6=O)c4c3)cc2CC1 (stereo not drawn) [Example 22, 8-{5-[7-Methyl-7-(pyrrolidin-1-yl)-6,7,8,9-tetrahydro-5H-benzo[7]annulen-2-yl]-1H-pyrazolo[3,4-b]pyridin-3-yl}-2,3,4,5-tetrahydro-1,4-benzoxazepin-5-one]"
8,< 0.1 µM,"C[C@@H]1CCCN1C1CCc2cc(-c3cnc4[nH]nc(-c5ccc6c(c5)OCCNC6=O)c4c3)cc(Cl)c2CC1 (stereo partly drawn) [Example 65, 8-(5-{4-Chloro-7-[(2R)-2-methylpyrrolidin-1-yl]-6,7,8,9-tetrahydro-5H-benzo[7]annulen-2-yl}-1H-pyrazolo[3,4-b]pyridin-3-yl)-2,3,4,5-tetrahydro-1,4-benzoxazepin-5-one]"
